Test results from PMC9941834, “Histidine supplementation can escalate or rescue HARS deficiency in a Charcot–Marie–Tooth disease model” (Human Molecular Genetics, 2022).
Changes are numbered by the printed parent chain.

Key:
Assay in all cases: differential scanning fluorimetry (thermal shift)
Assay type in all cases: binding
[1] = target: T1, hsHARS (human histidyl-tRNA synthetase, HARS) (Homo sapiens, UniProt P12081, V155G); settings: 1 μM protein, apo mutant TM 59.8 ± 0.7 °C
T1 construct: gene HARS1; hsHARS gene in pDest527, 6x-His tag, E. coli BL21 Codon Plus, Ni-NTA purified; dimeric protein
T1 sequence (P12081 1-509 V155G): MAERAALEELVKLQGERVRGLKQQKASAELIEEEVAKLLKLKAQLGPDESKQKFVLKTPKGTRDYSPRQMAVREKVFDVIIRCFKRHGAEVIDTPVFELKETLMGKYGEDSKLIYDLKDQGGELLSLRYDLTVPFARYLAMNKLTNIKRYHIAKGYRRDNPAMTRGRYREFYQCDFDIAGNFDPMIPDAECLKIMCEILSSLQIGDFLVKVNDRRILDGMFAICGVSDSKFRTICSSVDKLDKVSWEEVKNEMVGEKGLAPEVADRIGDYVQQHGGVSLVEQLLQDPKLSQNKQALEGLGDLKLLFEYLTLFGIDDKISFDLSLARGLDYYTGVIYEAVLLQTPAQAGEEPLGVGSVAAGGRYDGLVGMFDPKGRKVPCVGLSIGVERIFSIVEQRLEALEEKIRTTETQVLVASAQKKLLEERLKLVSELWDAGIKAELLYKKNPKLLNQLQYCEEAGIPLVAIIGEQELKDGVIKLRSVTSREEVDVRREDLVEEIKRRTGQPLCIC
Description: (§1) differential scanning fluorimetry (thermal shift) on […]

[2] = target: T2, hsHARS (human histidyl-tRNA synthetase, HARS) (Homo sapiens, UniProt P12081, Y454S); settings: 1 μM protein, apo mutant TM 50 ± 1.8 °C
T2 construct: gene HARS1; hsHARS gene in pDest527, 6x-His tag, E. coli BL21 Codon Plus, Ni-NTA purified; dimeric protein
T2 sequence (P12081 1-509 Y454S): T1 sequence (P12081 1-509 V155G) with G155V, Y454S
Description: as §1

[3] = target: T3, hsHARS (human histidyl-tRNA synthetase, HARS) (Homo sapiens, UniProt P12081, V133F); settings: 500 μM ATP, 1 μM protein; apo mutant TM 52 ± 1.2 °C
T3 construct: gene HARS1; hsHARS gene in pDest527, 6x-His tag, E. coli BL21 Codon Plus, Ni-NTA purified; dimeric protein
T3 sequence (P12081 1-509 V133F): T1 sequence (P12081 1-509 V155G) with V133F, G155V
Description: differential scanning fluorimetry (thermal shift) on hsHARS (human histidyl-tRNA synthetase, HARS) | high ATP concentrations increase the thermal stability of HARS V133F to wild-type levels

Row | Compound | TM ([1]; 500 μM ATP) | TM ([2]; 500 μM ATP) | TM [3] | TM ([1]; 1 mM histidine) | TM ([2]; 1 mM histidine)
1 | Nc1ncnc2c1ncn2[C@@H]1O[C@H](COP(=O)(O)OP(=O)(O)OP(=O)(O)O)[C@@H](O)[C@H]1O [ATP] | all substrate supplementations restored wild-type like levels of protein stability | The addition of tRNA or ATP alone or in combination slightly increased stability | 63 ± 1.9 °C |  | 
2 | N[C@@H](Cc1cnc[nH]1)C(=O)O [histidine] |  |  |  | all substrate supplementations restored wild-type like levels of protein stability | 57.8 ± 0.8 °C
